“Also recorded” adds a separate entry of the source. Read-outs that look alike come from different tables or passages of the source. A value given as a limit tells only on which side of the number the result lay.

Data set [1] can be described thus: Mouse plasma pharmacokinetics after a single 25 mg/kg sc dose (LC-MS, non-compartmental model). The conditions noted are these: for %T>MIC: female BALB/c mice, single 25 mg/kg sc, percentage of time above the MIC over 3 h; for AUC(0-t) / Cmax / half-life / concentration at 3 h: female, BALB/c, mouse, plasma, sc, 25 mg/kg.
For data set [2], the system named is M. tuberculosis H37Rv. Briefly: Minimum inhibitory concentration (MIC) by micro broth dilution, read by visual inspection of the bacterial pellet after 14 d. The format is cell-based. The conditions noted are these: Mycobacterium tuberculosis, 336 h. On the technique in general: In broth dilution the organism is exposed to a series of concentrations in liquid medium.

For data set [3], the system named is M. tuberculosis. Further details: method as in Chambers et al. [7] (imipenem), Kumar et al. [6] (biapenem). The conditions noted are these: acute M. tuberculosis infection model in mice; ref Chambers et al. [7] (imipenem), Kumar et al. [6] (biapenem); cited from earlier work.
For data set [4] the following is noted: female, BALB/c, mouse, in vivo, sc, 25 mg/kg.
Data set [5] can be described thus: in vivo. The conditions noted are these: female, BALB/c, mouse, sc, 25 mg/kg.
Data set [6] deals with M. tuberculosis H37Rv. Briefly: Sub-acute mouse model of M. tuberculosis infection, lung CFU burden. The conditions noted are these: for onset of activity in infected mice (reduction of lung burden at one week vs no-treatment group): 400 mg/kg bid sc + 75 mg/kg clavulanate, little or no reduction at one week; for efficacy in comparison (lung M. tuberculosis burden): 1 and 3 weeks. Type of data set: in vivo, BALB/c mice.

Setting [7] is: M. tuberculosis H37Rv, 7H9 broth without Tween-80, 14 d, drug alone without clavulanate, read-out: MIC.
[8] abbreviates: carbapenems 400 mg/kg bid sc + 75 mg/kg clavulanate, rifampin 10 mg/kg once daily orally.

As usually defined, the AUC(0-t) is exposure summed from dosing to a finite time, without extrapolation to infinity. A lower AUC(0-t) goes with less exposure. Usually Cmax stands for the peak of the concentration-time curve. What is called half-life is the time in which the quantity being followed falls by half. In general, MIC refers to the smallest concentration in the dilution series that meets the test's criterion for growth inhibition. As to `C[C@@H](O)[C@H]1C(=O)N2C(C(=O)[O-])=C(SC3Cn4cnc[n+]4C3)[C@H](C)[C@H]12` (stereo partly drawn) [Biapenem, reference compound], in data set [1], the “%T>MIC” value is on record as 33–100%, the AUC(0-t) stood at 63300 ng·h/mL, the Cmax worked out at 55600 ng/mL and the half-life was 17.3 min. The MIC in data set [2] (setting [7]) was 2.5 to 5 µg/mL. In addition, the “onset of activity in infected mice” value in data set [3] is recorded as “delayed activity”.
On to `C[C@@H](O)[C@H]1C(=O)N2C(C(=O)O)=C(SCC(=O)OC(C)(C)C)[C@H](C)[C@H]12` [JSF-2196], for which the “%T>MIC” value in data set [4] is listed as 17–33%. Besides, the MIC in data set [2] (setting [7]) lay within 2 to 4 µg/mL. Also, in data set [5], the AUC(0-t) is 9060 ng·h/mL, the Cmax is 20500 ng/mL and the half-life was 13.8 min.
On to `CSC1=C(C(=O)[O-])N2C(=O)[C@H]([C@@H](C)O)[C@H]2[C@H]1C.[Na+]` [JSF-2204, Sodium (4R,5S,6S)-6-((R)-1-hydroxyethyl)-4-methyl-3-(methylthio)-7-oxo-1-azabicyclo[3.2.0]hept-2-ene-2-carboxylate], for which, in data set [1], the “%T>MIC” value is given as 33–100%, the AUC(0-t) stood at 23000 ng·h/mL and the Cmax amounted to 63000 ng/mL. Further, the MIC in data set [2] (H37RV) fell in the range of 0.25 to 0.5 µg/mL. Further, in data set [6], the “onset of activity in infected mice (reduction of lung burden at one week vs no-treatment group)” value is given as “delayed activity”. The “efficacy in comparison (lung M. tuberculosis burden)” value in data set [6] (setting [8]) is “efficacy equivalent to that of meropenem; also recorded: inferior to rifampin; also recorded: statistically indistinguishable efficacy; also recorded: statistically equivalent performance to meropenem”.
Take `C[C@@H](O)[C@H]1C(=O)N2C(C(=O)O)=C(SCC(F)(F)F)[C@H](C)[C@H]12` [JSF-2415]: the “%T>MIC” value in data set [4] is 17–33%. Moreover, the MIC in data set [2] (setting [7]) was in the range of 4 to 8 µg/mL. Further, in data set [5], the AUC(0-t) stood at 12500 ng·h/mL, the peak level (Cmax) was 34800 ng/mL and the half-life is 14.5 min.
Turning to `C[C@@H](O)[C@H]1C(=O)N2C(C(=O)[O-])=C(SCCc3ccccc3)[C@H](C)[C@H]12.[Na+]` [JSF-2417, Sodium (4R,5S,6S)-6-((R)-1-hydroxyethyl)-4-methyl-7-oxo-3-(phenethylthio)-1-azabicyclo[3.2.0]hept-2-ene-2-carboxylate], in data set [1], the “%T>MIC” value is listed as 8.3–33%, the AUC(0-t) is 5740 ng·h/mL, the Cmax was 5190 ng/mL and the concentration at 3 h stood at 262 ng/mL. This compound had a half-life in data set [1] of 38.8 min. Besides, the MIC in data set [2] (H37RV) fell in the range of 2 to 4 µg/mL. Also, the “onset of activity in infected mice (reduction of lung burden at one week vs no-treatment group)” value in data set [6] is “delayed activity”. Moreover, the “efficacy in comparison (lung M. tuberculosis burden)” value in data set [6] (setting [8]) was “inferior”.
In the case of `C[C@@H](O)[C@H]1C(=O)N2C(C(=O)[O-])=C(SCCC(=O)N3CCOCC3)[C@H](C)[C@H]12.[Na+]` [JSF-2700, Sodium (4R,5S,6S)-6-((R)-1-hydroxyethyl)-4-methyl-3-((3-morpholino-3-oxopropyl)thio)-7-oxo-1-azabicyclo[3.2.0]hept-2-ene-2-carboxylate], in data set [1], the “%T>MIC” value is 8.3–33%, the AUC(0-t) came to 5930 ng·h/mL, the Cmax was 17400 ng/mL and the concentration at 3 h came to 6 ng/mL. This compound had a half-life in data set [1] of 15.5 min. Besides, the MIC in data set [2] (H37RV) is 2 to 4 µg/mL.
With `C[C@@H](O)[C@H]1C(=O)N2C(C(=O)O)=C(S[C@@H]3CN[C@H](C(=O)N(C)C)C3)[C@H](C)[C@H]12` [Meropenem, reference compound], in data set [1], the “%T>MIC” value is reported as less than 8.3%, the AUC(0-t) was 613 ng·h/mL, the Cmax worked out at 1340 ng/mL and the half-life is 27.8 min. In data set [2] (setting [7]), the MIC was in the range of 4 to 8 µg/mL. In data set [6], the “onset of activity in infected mice (reduction of lung burden at one week vs no-treatment group)” value is on record as “delayed activity”.
Turning to `C[C@@H](O)[C@H]1C(=O)N2C(C(=O)O)=C(SCCN=CN)C[C@H]12` [imipenem], the “onset of activity in infected mice” value in data set [3] is “delayed activity”.
Regarding `CO[C@H]1/C=C/O[C@@]2(C)Oc3c(C)c(O)c4c(O)c(c(/C=N/N5CCN(C)CC5)c(O)c4c3C2=O)NC(=O)/C(C)=C\C=C\[C@H](C)[C@H](O)[C@@H](C)[C@@H](O)[C@@H](C)[C@H](OC(C)=O)[C@@H]1C` [rifampin, reference compound], the “effect on lung bacterial burden after one week of dosing” value in data set [6] (rifampin 10 mg/kg once daily orally, 1 week) is given as “bacteriostatic effect”. Moreover, the “effect on lung bacterial burden after 3 weeks of dosing” value in data set [6] (rifampin 10 mg/kg once daily orally, carbapenems 400 mg/kg bid sc + 75 mg/kg clavulanate, 3 weeks) is reported as “bacteriostatic effect”.

Source of the values: paper PMC8092647, “Assessment of carbapenems in a mouse model of Mycobacterium tuberculosis infection” (PLoS ONE, 2021).
